Assay results as given in patent US10398786B2, “Therapeutic gene cocktail for heart regeneration” (Academia Sinica, priority 2015, dated 2019).

System: adult CMs of OSKM transgenic mice
Assay: doxycycline injection into OSKM transgenic mice, adult CMs isolated after two days
Format: in vivo
Conditions: two days after doxycycline treatment
Method: Reverse transcription were completed following the protocol of SuperScript III Reverse-Transcriptase kit (Life Technology). SYBR Green Real-Time PCR master mixes were used to quantify each gene expression, and GAPDH were performed for normalization.
Adult ventricular CMs were isolated from male mice on a Langendorff apparatus. The hearts were removed from the anaesthetized mice after heparinization for 10 mins, and then were cannulated for retrograde perfusion with Ca^2+-free Tyrode solution (NaCl 120.4 mmol/L, KCl 14.7 mmol/L, KH2PO4 0.6 mmol/L, Na2HPO4 0.6 mmol/L, MgSO4 1.2 mmol/L, HEPES 1.2 mmol/L, NaHCO3 4.6 mmol/L, Taurine 30 mmol/L, BDM 10 mmol/L, Glucose 5.5 mmol/L).
After 3-minutes of perfusion, the solution mixed with Ca^2+-free Tyrode solution supplemented with collagenase B (0.4 mg/g body weight, Roche), collagenase D (0.3 mg/g body weight, Roche) and protease type XIV (0.05 mg/g body weight, Sigma-Aldrich) were used to digest the hearts. After digestion, the ventricles were cut from the cannula and teased into small pieces in the digestion solution neutralized by the Ca^2+-free Tyrode solution containing 10% FBS. Adult CMs were dissociated from the digested tissues by gentle pipetting and collected after removing the un-digested tissues by filtering through a nylon mesh of 250 μm pore size. […]

## C[C@H]1c2cccc(O)c2C(=O)C2=C(O)[C@]3(O)C(=O)C(C(N)=O)=C(O)[C@@H](N(C)C)[C@@H]3[C@@H](O)[C@@H]21 [doxycycline]
  H3P+ population of adult CMs relative to control: 2 ×
